Experimental data reported in patent US11807780B2, “Aqueous coatings containing biosurfactants as bio-adjuvants and methods for using same” (RHODIA OPERATIONS, priority 2018, dated 2023).
Several values for one entry are separate records, joined by “and”; a condition that tells them apart may be missing. Equal values may be shown once. Read-outs that look alike come from different tables or passages of the source.

Test system: Pseudomonas aeruginosa ATCC 9027
Test: MIC determination by two fold dilutions in 96 well microtiter plates, biocide with and without bio-surfactant
Format: cell-based
Details: for MIC: Pseudomonas aeruginosa; for microbial growth (absorbance at 660 nm): Table 3 / FIG. 5, triplicate wells
Experimental: In microbiology, minimum inhibitory concentration (MIC) is defined as the lowest concentration of an antimicrobial that will inhibit the growth of an microorganism after overnight or long incubation. Minimum inhibitory concentrations are important in diagnostic laboratories to confirm resistance of microorganisms to an antimicrobial agent and also to monitor the activity of new antimicrobial agents. A lower MIC is an indication of a better antimicrobial agent, as less is generally needed for acceptable performance. An MIC determination is generally regarded as a basic or standard laboratory measurement of the activity of an antimicrobial agent against an organism.
Biocides tested: • Methylchloroisothiazolinone/Methylisothiazolinone (CMIT/MIT) [also known as KATHON]: • Benzisothiazolinone [BIT] • Methylisothiazolinone [MIT]
Microorganism Used: Pseudomonas aeruginosa ATCC 9027
Biosurfactants tested: • 1. R95D90 (SigmaAldrich) 95% pure rhamnolipid with 90% Di-rhamnolipid dominant • 2. R95M90 (SigmaAldrich) 95% pure rhamnolipid with 90% Mono-rhamnolipid dominant • 3. Natural Saponin
MIC test is a method for determining the Minimum Inhibitory Concentration of a compound required to inhibit or kill the test organisms. MIC50 test is a method for determining the Minimum Inhibitory Concentration of a compound required to inhibit or kill the 50% of the test organisms.
1. The method was based on the MIC (Minimum Inhibitory Concentration) determination by standard two fold dilutions prepared in an appropriate medium and tested in 96 well microtiter plates.
2. A 4× concentration of the active from bio-surfactant stock solution [400 ppm] was prepared to dispense into […].
3. The plates were divided into four sections. Unless otherwise stated, Columns 1-3 received a combination of the bio-surfactant and biocide, Columns 4-6 received biocide alone, and Columns 7-9 received the bio-surfactant alone. Column 10 was left empty, Column 11 was blank medium and Column 12 was medium plus the suspension of the organism.
5. One microtiter plate per test organism and per biocide was used. The dilution scheme is attached as a separate PDF file “Dilution Scheme”.
6. 100 μL of sterile water was aliquoted into to columns 4-6, 11 and 12 with the aid of a 12-channel pipettor add 50 μL in Columns 1-3 and 7-9.
7. Dispensed 50 μL of the 8× stock solution of an appropriate biocide (MIT, BIT or Kathon) in Row A Columns 1-3
8. After mixing with the aid of the multichannel pipettor, 50 μL from the row A wells were transferred to 2nd row [B] wells and after mixing, 50 μL transferred to row C and, the operations were repeated down to row […] and 50 μL from H row (the last row) were discarded.
9. Make 4× stock solution [400 ppm] of each of the bio-surfactants. Dispensed 50 μL of bio-surfactant in 4 different 96 well plates in Columns 7-9 in each of the respective plates.
10. In wells 4-6, 100 μL of individual biocides at 4× concentration were added to the top row A, then serially diluted down to row H while discarding the final 100 μL from row H.
11. Columns 1-3 and 7-9 received 50 μL of 4× bio-surfactant.
12. In a separate tube, prepared bacterial inoculums from 24 hr grown cultures by suspending the cells in 2× Tryptic Soy Broth medium for bacteria.
13. The bacterial inocula were adjusted to 5-6 logs cfu/ml by measuring the turbidity.
14. With an aid of the multichannel pipettor, aliquots of 100 μL organisms were dispensed into each well except for Column 11 in which blank medium was added.
15. Incubated the plates at 35 Celsius degrees for 24 hours for bacterial growth
16. Made visual recordings of positive or negative growth in wells. Measured the absorbance at 660 nm and assessed viability via addition of resazurin dye. Note: for bacterial growth, 10 μL of dye Resazurin stock [250 mg/50 mL] was added to determine the positive and negative growths as determined by color change from blue to pink. […]

O=c1[nH]sc2ccccc12 [BIT, 1,2-benzisothiazolin-3-one]
MIC (ATCC9027, biocide alone, Di-Rhamnolipid 95% series, read-out: MIC w/o BS): 25 µg/mL
MIC (ATCC9027, biocide alone, Mono + Di Rhamnolipid 95% series, read-out: MIC w/o BS): 25 µg/mL
MIC (ATCC9027, biocide alone, Mono-Rhamnolipid 95% series, read-out: MIC w/o BS): 25 µg/mL
MIC (ATCC9027, biocide alone, Natural Saponin series, read-out: MIC w/o BS): 25 µg/mL
MIC (ATCC9027, with Di-Rhamnolipid 95% (50 ppm), read-out: MIC with BS): 12.5 µg/mL
MIC (ATCC9027, with Mono + Di Rhamnolipid 95% (50 ppm), read-out: MIC with BS): 12.5 µg/mL
MIC (ATCC9027, with Mono-Rhamnolipid 95% (50 ppm), read-out: MIC with BS): 12.5 µg/mL
MIC (ATCC9027, with Natural Saponin (Purchased), 50 ppm active, read-out: MIC with BS): > 200 µg/mL
microbial growth (absorbance at 660 nm) (PPM 1.56): 0.046 and 0.048 and 0.047
microbial growth (absorbance at 660 nm) (PPM 3.13): 0.046 and 0.047 and 0.048
microbial growth (absorbance at 660 nm) (PPM 6.25): 0.047 and 0.048
microbial growth (absorbance at 660 nm) (PPM 50): 1.278 and 1.284 and 1.285
microbial growth (absorbance at 660 nm) (PPM 100): 1.339 and 1.313 and 1.302
microbial growth (absorbance at 660 nm) (PPM 200): 1.371 and 1.379

Cn1sccc1=O [MIT, 2-methyl-4-isothiazolin-3-one]
MIC (ATCC9027, read-out: MIC w/o BS, biocide alone, Di-Rhamnolipid 95% series): 12.5 µg/mL
MIC (ATCC9027, read-out: MIC w/o BS, biocide alone, Mono + Di Rhamnolipid 95% series): 12.5 µg/mL
MIC (ATCC9027, read-out: MIC w/o BS, biocide alone, Mono-Rhamnolipid 95% series): 12.5 µg/mL
MIC (ATCC9027, read-out: MIC w/o BS, biocide alone, Natural Saponin series): 12.5 µg/mL
MIC (ATCC9027, read-out: MIC with BS, with Di-Rhamnolipid 95% (50 ppm)): 12.5 µg/mL
MIC (ATCC9027, read-out: MIC with BS, with Mono + Di Rhamnolipid 95% (50 ppm)): 6.5 µg/mL
MIC (ATCC9027, read-out: MIC with BS, with Mono-Rhamnolipid 95% (50 ppm)): 6.5 µg/mL
MIC (ATCC9027, read-out: MIC with BS, with Natural Saponin (Purchased), 50 ppm active): > 100 µg/mL
